The values that follow come from patent US7714017B2, “Carboxylic acid peri-substituted bicyclics for occlusive artery disease” (Decode Genetics, EHF, priority 2004, dated 2010).

SMILES strings stand for the structures.

This assay has as its target T1, prostanoid EP3 receptors (Homo sapiens, UniProt P43115).
T1 sequence (P43115 1-390): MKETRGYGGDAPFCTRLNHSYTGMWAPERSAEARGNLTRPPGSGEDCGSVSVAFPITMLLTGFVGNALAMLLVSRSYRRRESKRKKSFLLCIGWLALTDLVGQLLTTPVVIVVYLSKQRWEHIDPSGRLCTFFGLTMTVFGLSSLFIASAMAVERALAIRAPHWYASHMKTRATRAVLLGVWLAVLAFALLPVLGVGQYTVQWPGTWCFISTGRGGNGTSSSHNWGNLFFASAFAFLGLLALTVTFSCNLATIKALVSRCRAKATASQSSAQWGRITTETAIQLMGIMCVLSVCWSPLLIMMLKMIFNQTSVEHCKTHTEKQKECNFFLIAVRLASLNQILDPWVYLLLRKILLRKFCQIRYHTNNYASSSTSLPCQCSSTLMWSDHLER
In words: binding on prostanoid EP3 receptors (method of Abramovitz et al.). Conditions: Chart 1, read-out: Activity (EP3 receptor binding IC50 class). How it is done:
The compounds of the invention were assayed for their binding on prostanoid EP3 receptors according to the method of Abramovitz et al. [Bioch. Biophys. Acta, 1473, 285-293 (2000)]. […] Compounds with IC50<1 μM are shown as +++; compounds with IC50 1-10 μM are shown as ++; and compounds with IC50>10 μM are shown as +.
The compounds of the invention were assayed for their binding on prostanoid EP3 receptors according to the method of Abramovitz et al. [Bioch. Biophys. Acta. 1473, 285-293 (2000)]. […] Compounds with IC50<1 μM are shown as +++; compounds with IC50 1-10 μM are shown as ++; and compounds with IC50>10 μM are shown as +.
The term IC50 denotes the concentration at which inhibition is half-maximal. Regarding `Cn1cc(/C=C/C(=O)O)c2c(Oc3ccc(Cl)c(F)c3)cccc21` [Compound A43, (E)-3-[4-(4-Chloro-3-fluoro-phenoxy)-1-methyl-1H-indol-3-yl]-acrylic acid], the IC50 was below 1000 nM.

Consider `O=C(O)/C=C/c1cccc2c1N(Cc1ccc3ccccc3c1)C(=O)C2=O` [Compound A56, (E)-3-(1-Naphthalen-2-ylmethyl-2,3-dioxo-2,3-dihydro-1H-indol-7-yl)-acrylic acid], for which the IC50 is below 1000 nM. For `O=C(O)/C=C/c1cccc2ccn(Cc3ccc4ccccc4c3)c12` [Compound A53, (E)-3-(1-Naphthalen-2-ylmethyl-1H-indol-7-yl)-acrylic acid], the IC50 was below 1000 nM. `CC12CCCC(CCC(=O)O)C1N(Cc1ccc(F)c(F)c1)C(=O)C2` (centres unmarked) [Compound A49, 3-[1-(3,4-Difluoro-benzyl)-3a-methyl-2-oxo-octahydro-indol-7-yl]-propionic acid]: the IC50 was 1000 to 10000 nM.

Consider `CC12CCCC(/C=C/C(=O)O)=C1N(Cc1cccc(Cl)c1)C(=O)C2` (centres unmarked) [Compound A35, (E)-3-[1-(3-Chloro-benzyl)-3a-methyl-2-oxo-2,3,3a,4,5,6-hexahydro-1H-indol-7-yl]-acrylic acid], for which the IC50 fell in the range of 1000 to 10000 nM.

For `CC12CCCC(/C=C/C(=O)O)=C1N(Cc1cccc(Cl)c1Cl)C(=O)C2` (centres unmarked) [Compound A36, (E)-3-[1-(2,3-Dichloro-benzyl)-3a-methyl-2-oxo-2,3,3a,4,5,6-hexahydro-1H-indol-7-yl]-acrylic acid], the concentration for half-maximal inhibition (IC50) was in the range of 1000 to 10000 nM. Take `Cn1cc(/C=C/C(=O)O)c2c(Oc3ccc(F)c(Cl)c3)cccc21` [Compound A38, (E)-3-[4-(3-Chloro-4-fluoro-phenoxy)-1-methyl-1H-indol-3-yl]-acrylic acid]: the IC50 lay in the range of 1000 to 10000 nM. Turning to `CC12CCCC(/C=C/C(=O)O)=C1N(Cc1ccc(F)c(F)c1)C(=O)C2` (centres unmarked) [Compound A30, (E)-3-[1-(3,4-Difluoro-benzyl)-3a-methyl-2-oxo-2,3,3a,4,5,6-hexahydro-1H-indol-7-yl]-acrylic acid], the IC50 lay in the range of 1000 to 10000 nM. On to `Cc1cc2c(=O)n(C)c(=O)n(CCC(=O)O)c2n1Cc1ccc(Cl)cc1Cl` [Compound A63, 3-[7-(2,4-Dichloro-benzyl)-3,6-dimethyl-2,4-dioxo-2,3,4,7-tetrahydro-pyrrolo[2,3-d]pyrimidin-1-yl]-propionic acid], for which the IC50 lay within 1000 to 10000 nM. Consider `Cc1cn(Cc2ccc(Cl)cc2Cl)c2c(/C=C/C(O)(C(F)(F)F)C(F)(F)F)cc(F)cc12` [Compound A64, (E)-4-[1-(2,4-Dichloro-benzyl)-5-fluoro-3-methyl-1H-indol-7-yl]-1,1,1-trifluoro-2-trifluoromethyl-but-3-en-2-ol], for which the IC50 fell in the range of 1000 to 10000 nM. On to `Cc1ccc(C)c(Cn2c(=O)oc3cccc(OCC(=O)O)c32)c1` [Compound A08, [3-(2,5-Dimethyl-benzyl)-2-oxo-2,3-dihydro-benzooxazol-4-yloxy]-acetic acid], for which the IC50 was 1000 to 10000 nM. For `CC(=O)c1cn(Cc2ccc(Cl)cc2Cl)c2c(/C=C/C(=O)O)cccc12` [Compound A13, (E)-3-[3-Acetyl-1-(2,4-dichloro-benzyl)-1H-indol-7-yl]-acrylic acid], the IC50 is 1000 to 10000 nM.

Turning to `Cn1cc(/C=C/C(=O)O)c2c(Oc3ccc(Cl)cc3Cl)cccc21` [Compound A40, (E)-3-[4-(2,4-Dichloro-phenoxy)-1-methyl-1H-indol-3-yl]-acrylic acid], the IC50 is below 1000 nM.

As to `Cn1cc(/C=C/C(=O)O)c2c(Oc3ccc(F)c(F)c3)cccc21` [Compound A42, (E)-3-[4-(3,4-Difluoro-phenoxy)-1-methyl-1H-indol-3-yl]-acrylic acid], the IC50 was 1000 to 10000 nM.

Turning to `O=C(O)C=Cc1cccc2c1N(Cc1ccc3ccccc3c1)C(=O)C2(O)C(F)(F)F` (centres unmarked) [Compound A15, 3-(3-Hydroxy-1-naphthalen-2-ylmethyl-2-oxo-3-trifluoromethyl-2,3-dihydro-1H-indol-7-yl)-acrylic acid], the IC50 was 1000 to 10000 nM. Turning to `O=C(O)C(=O)Nc1cccc2c1N(Cc1ccc3ccccc3c1)C(=O)CO2` [Compound A51, N-(4-Naphthalen-2-ylmethyl-3-oxo-3,4-dihydro-2H-benzo[1,4]oxazin-5-yl)-oxalamic acid], the IC50 is above 10000 nM. In the case of `CC12CCCC(/C=C/C(=O)O)=C1N(Cc1ccc(Cl)c(Cl)c1)C(=O)C2` (centres unmarked) [Compound A34, (E)-3-[1-(3,4-Dichloro-benzyl)-3a-methyl-2-oxo-2,3,3a,4,5,6-hexahydro-1H-indol-7-yl]-acrylic acid], the IC50 was below 1000 nM. In the case of `Cn1nc(NCC(=O)O)c2c(Oc3ccc4ccccc4c3)cccc21` [Compound A25, [1-Methyl-4-(naphthalen-2-yloxy)-1H-indazol-3-ylamino]-acetic acid], the IC50 was below 1000 nM. In the case of `Cn1cc(/C=C/C(=O)O)c2c(Oc3ccc4ccccc4c3)cccc21` [Compound A44, (E)-3-[1-Methyl-4-(naphthalen-2-yloxy)-1H-indol-3-yl]-acrylic acid], the IC50 was below 1000 nM. As for `O=C(O)/C=C/c1cnn2ccn(Cc3ccc4ccccc4c3)c12` [Compound A02, (E)-3-(1-Naphthalen-2-ylmethyl-1H-imidazo[1,2-b]pyrazol-7-yl)-acrylic acid], the half-maximal inhibitory concentration (IC50) lay within 1000 to 10000 nM. For `O=C(O)COc1cccc2oc(=O)n(Cc3ccc(Cl)cc3Cl)c12` [Compound A07], the IC50 was 1000 to 10000 nM.

As to `COc1cccc(CN2C(=O)CC3(C)CCCC(/C=C/C(=O)O)=C23)c1` (centres unmarked) [Compound A29, (E)-3-[1-(3-Methoxy-benzyl)-3a-methyl-2-oxo-2,3,3a,4,5,6-hexahydro-1H-indol-7-yl]-acrylic acid], the IC50 was below 1000 nM. Consider `COCc1cn(Cc2ccc(Cl)cc2Cl)c2c(/C=C/C(=O)O)cccc12` [Compound A12, (E)-3-[1-(2,4-Dichloro-benzyl)-3-methoxymethyl-1H-indol-7-yl]-acrylic acid], for which the IC50 was below 1000 nM. As for `O=C(O)COc1cccc2oc(=O)n(Cc3ccc(Cl)c(Cl)c3)c12` [Compound A06, [3-(3,4-Dichloro-benzyl)-2-oxo-2,3-dihydro-benzooxazol-4-yloxy]-acetic acid], the figure is 1000 to 10000 nM; as for `Cc1cn(Cc2cn3ccccc3n2)c2c(/C=C/C(=O)O)cc(F)cc12` [Compound A57, (E)-3-(5-Fluoro-1-imidazo[1,2-a]pyridin-2-ylmethyl-3-methyl-1H-indol-7-yl)-acrylic acid], 1000 to 10000 nM; as for `CC1(C)C(=O)N(Cc2ccc(Cl)cc2Cl)c2c(/C=C/C(=O)O)cccc21` [Compound A19, (E)-3-[1-(2,4-Dichloro-benzyl)-3,3-dimethyl-2-oxo-2,3-dihydro-1H-indol-7-yl]-acrylic acid], 1000 to 10000 nM. In the case of `Cn1cc(/C=C/C(=O)O)c2c(Oc3ccc(F)cc3Cl)cccc21` [Compound A46, (E)-3-[4-(2-Chloro-4-fluoro-phenoxy)-1-methyl-1H-indol-3-yl]-acrylic acid], the IC50 was in the range of 1000 to 10000 nM. As to `CC12CCCC(/C=C/C(=O)O)=C1N(Cc1ccc(F)cc1)C(=O)C2` (centres unmarked) [Compound A28, (E)-3-[1-(4-Fluoro-benzyl)-3a-methyl-2-oxo-2,3,3a,4,5,6-hexahydro-1H-indol-7-yl]-acrylic acid], the IC50 was below 1000 nM. With `O=C(O)/C=C/c1cccc2c(CO)cn(Cc3ccc(Cl)cc3Cl)c12` [Compound A10, (E)-3-[1-(2,4-Dichloro-benzyl)-3-hydroxymethyl-1H-indol-7-yl]-acrylic acid], the IC50 lay within 1000 to 10000 nM.
